Measurements taken from BigSolDB 2.1.

CC(=CC(C)=Nc1c(C)cc(C)cc1C)Nc1c(C)cc(C)cc1C
solubility (mole fraction)
Settings | 273.15 K | 278.15 K | 283.15 K | 288.15 K | 293.15 K | 298.15 K | 303.15 K
in THF | 0.215 | 0.233 | 0.253 | 0.273 | 0.295 | 0.317 | 0.346
in ethanol | 0.00285 | 0.00317 | 0.00373 | 0.00471 | 0.00561 | 0.00678 | 0.00849
in methanol | 0.0008 | 0.00094 | 0.00117 | 0.00137 | 0.00169 | 0.00205 | 0.00275
in n-hexane | 0.0989 | 0.106 | 0.124 | 0.148 | 0.181 | 0.216 | 0.255
in toluene | 0.189 | 0.211 | 0.236 | 0.264 | 0.295 | 0.33 | 0.372
